# Measured values from US20240366571A1, “MODULATORS OF SK4 POTASSIUM CHANNEL AND USES THEREOF” (Ramot at Tel-Aviv University Ltd., priority 2022, published 2024).
# System: isolated guinea pig hearts
# Assay: Langendorff perfused isolated guinea pig hearts
# Details: 10 μM
# Method: Animals: Adult male Sprague-Dawley rats (n=56, 200-250 grams) and Guinea pigs (n=19, 400-700 grams) obtained from Envigo Laboratories (Jerusalem, Israel) were bred and grown in Ben-Gurion University of the Negev, Israel. Experiments in rats and guinea pigs were approved by the institutional ethics committee of Ben-Gurion University of the Negev, Israel (Protocol No. IL-24-05-2020(D) and were carried out in strict accordance with the Guide for the Care and Use of Laboratory Animals of the National Institutes of Health. The animals were kept under standardized conditions: 12:12 light: dark cycles at 20-24° C. and 30-70% relative humidity.
# Perfused isolated hearts—Langendorff method: The isolated heart experiment setup was performed as described in Etzion et al., Am J Physiol Heart Circ Physiol (2008) 295, H1460-1469; and Mor et al., J Pharmacol Exp Ther (2013) 344, 59-67.]. Briefly, each animal was anesthetized with 2% isoflurane and an intraperitoneal (IP) injection of pentobarbital (60 mg/kg), followed by IP injection of Heparin (1000 U/kg). The heart was rapidly excised and placed into ice-cold Tyrode's buffer solution (consisted of 140 mM NaCl, 5.4 mM KCl, 0.5 mM MgCl2, 2.5 mM CaCl2, 0.39 mM NaH2PO4, 10 mM HEPES and 11 mM glucose, and titrated to pH 7.4 with NaOH). The aorta was cannulated and connected to a pre-heated (37° C.) and oxygenated perfusion system with Tyrode's solution while perfusion pressure was maintained at about 70 mmHg throughout the experiment. Prior to the experiment, the heart was left in Tyrode's solution to stabilize for 20 minutes for hemodynamic measurements, the left atrial appendage was excised, and a collapsed latex balloon was inserted into the left ventricle (LV) through the mitral valve. Once positioned, the balloon was filled with double distilled water reaching an end-diastolic pressure of 10-15 mmHg. Coronary perfusion pressure and LV pressure were recorded by a pressure amplifier (ETH-256C amplifier and B-100 probes, iWorx, NH, USA). Electrophysiological signals were recorded from the high right atrium (HRA) via a miniature quadripolar hook electrode (for simultaneous pacing and recording) and from the LV via a bipolar hook electrode. Electrical signals were filtered (1-2 kHz) and recorded by two voltage amplifiers (Model 3000, A-M Systems, Carlsberg, WA, USA). Signals were interfaced with a PC using an A/D converter (PCI-6024E, National Instruments, Austin TX, USA) and a custom-designed program developed with LabVIEW programing language (National Instruments, Austin, TX, USA) to control signal acquisition, data saving and off-line analysis. Measured physiological parameters during the experiment included perfusion flow (ml/minute) as a marker for coronary perfusion pressure, LV developed pressure, dP/dt±(representing the rate of rise of left ventricular pressure during isovolumetric contraction as a marker for LV contractility), heart rate, PR, and RR intervals. Tram-34 and BA6b9 were applied for a 20-minutes incubation period and physiological parameters were recorded.
# Effective refractory period measurements: Using both custom-made quadripolar electrode inserted on the HRA and two bipolar electrodes (recording and pacing) on the LV, allowed measurement of the effective refractory period (ERP) at the atrial level (atrial effective refractory period, AERP), atrioventricular level (AVERP), and ventricular level (VERP). For ERP measurement, a programmed S1S2 stimulation protocol was performed using double diastolic threshold intensity. The protocol consisted of ten S1-S2 intervals of 150 milliseconds (ms) followed by an S1-S2 interval that was reduced by 1 ms each time, until pacing capture failed three consecutive times. AERP, AVERP, and VERP were measured and recorded prior and after exposure to the used inhibitor, either Tram-34 or BA6b9.
smiles,measurement,value
"CCCCCCCn1c(=O)oc2ccccc21 [BA6b9, 3-heptylbenzo[d]oxazol-2(3H)-one]",AERP (effect),significantly prolonged
same,AVERP (effect),significantly prolonged
same,PR interval (effect),increasing PR interval
same,VERP (effect),significantly prolonged
same,action potential activation current (atrial and ventricular pacing thresholds),Neither Tram-34 nor BA6b9 affected
same,coronary flow (perfusion flow velocity),no effect
same,heart rate (effect),decreased heart rate
